Tests used:
Format in all cases: functional
[1] = test system: Panel CNS (Carcinoma cell lines); test: Compound was tested for 50% lethality in CNS cancer cell lines; conditions: Homo sapiens, read-out: Log LC50 (the source's name) (converted)
[2] = test system: Panel colon (Carcinoma cell lines); test: Compound was tested for 50% lethality in Colon cancer cell lines; conditions: Homo sapiens, read-out: Log LC50 (the source's name) (converted)
[3] = test system: Panel melanoma (Carcinoma cell lines); test: Compound was tested for 50% lethality in Melanoma cancer cell lines; conditions: Homo sapiens, read-out: Log LC50 (the source's name) (converted)
[4] = test system: NSCLC; test: Compound was tested for 50% lethality in Non-small-cell lung cancer cell lines; conditions: Homo sapiens, read-out: Log LC50 (the source's name) (converted)
[5] = test system: Panel ovarian (Carcinoma cell lines); test: Compound was tested for 50% lethality in Ovarian cancer cell lines; conditions: Homo sapiens, read-out: Log LC50 (the source's name) (converted)
[6] = test system: Panel prostate (Carcinoma cell lines); test: Compound was tested for 50% lethality in Prostate cancer cell lines; conditions: Homo sapiens, read-out: Log LC50 (converted)
[7] = test system: Panel renal (Carcinoma cell lines); test: Compound was tested for 50% lethality in Renal cancer cell lines; conditions: Homo sapiens, read-out: Log LC50 (the source's name) (converted)
[8] = test system: Panel breast (Carcinoma cell lines); test: Compound was tested for 50% lethality in Breast cancer cell lines; conditions: Homo sapiens, read-out: Log LC50 (the source's name) (converted)
[9] = test system: leukaemia cell line; test: Compound was tested for 50% lethality in leukemia cancer cell lines; conditions: Homo sapiens, read-out: Log LC50 (the source's name) (converted)

Compound	CC50 [1] [µM]	CC50 [2] [µM]	CC50 [3] [µM]	CC50 [4] [µM]	CC50 [5] [µM]	CC50 [6] [µM]	CC50 [7] [µM]	CC50 [8] [µM]	CC50 [9] [µM]
CCN(CC)CCCOc1cc2c(cc1OC)C(=O)N1CCC[C@H]1C=N2	> 100	87.1	93.3	> 100	> 100	> 100	> 100	> 100	> 100
COc1cc2c(cc1OCCCN1CCOCC1)N=C[C@@H]1CCCN1C2=O	95.5	66.1	87.1	95.5	> 100	> 100	97.7	97.7	> 100
COc1cc2c(cc1OCCCN1CCN(C)CC1)N=C[C@@H]1CCCN1C2=O	64.6	55	30.9	67.6	61.7	> 100	56.2	64.6	52.5
